From ChEMBL document CHEMBL1629460, “Image-based high-throughput drug screening targeting the intracellular stage of Trypanosoma cruzi, the agent of Chagas' disease” (Antimicrob Agents Chemother, 2010) come the findings set out here.

Assay [1] can be described thus: Cytotoxicity against BESM cells after 88 hrs by HTS assay. It is filed as ADME, cell-based. The note with it: Bos taurus.
The next assay relates to Trypanosoma cruzi. As to the kind of experiment: Antitrypanosomal activity against Trypanosoma cruzi amastigotes infected in BESM cells measured after 88 hrs postinfection by HTS assay. It is filed as functional, organism-based.
Assay [2] is described as follows: Selectivity window, ratio of EC50 for BESM cells to EC50 for Trypanosoma cruzi amastigotes infected in BESM cells. Details: reference not given here.

For orientation: EC50 means the concentration that produces a half-maximal response. Regarding `COc1cc(N)[nH]c2nc(-c3ccc(F)cc3)c(-c3ccncc3)c1-2`, the EC50 in assay [1] is more than 50 µM; in the assay with Trypanosoma cruzi it was 5 µM. The “Ratio EC50” value in assay [2] was more than 10.
For `Cc1c(C)c2c(c(C)c1O)CCC(C)(CN1CCN(c3cc(N4CCCC4)nc(N4CCCC4)n3)CC1)O2` (stereo not drawn) the same measures were more than 50 µM, 17 µM and more than 2.9.
In the same order, the values of `CCCCCCCCCCCCC/C=C/[C@@H](O)[C@H](CO)NC(=O)CCCCCCC` are 11 µM, 13 µM and 0.8.
`Cc1c(O)cccc1C(=O)N[C@@H](CSc1ccccc1)[C@H](O)CN1C[C@H]2CCCC[C@H]2C[C@H]1C(=O)NC(C)(C)C`: the EC50 in assay [1] amounted to 32 µM; with Trypanosoma cruzi it was 12 µM. In assay [2], the “Ratio EC50” value came out at 2.7.
In the same order, the values of `O=C(Nc1ccc(Cl)c(Cl)c1)c1cc(Cl)cc(Cl)c1O` [3,3',4',5-TETRACHLOROSALICYLANILIDE] are 26 µM, 8 µM and 3.3.
In the same order, the values of `CC[C@H](C)[C@H]1O[C@]2(C=C[C@@H]1C)C[C@@H]1C[C@@H](C/C=C(\C)[C@@H](O[C@H]3C[C@H](OC)[C@@H](O[C@H]4C[C@H](OC)[C@@H](O)[C@H](C)O4)[C@H](C)O3)[C@@H](C)/C=C/C=C3\CO[C@@H]4[C@H](O)C(C)=C[C@@H](C(=O)O1)[C@]34O)O2.CO[C@H]1C[C@H](O[C@H]2[C@H](C)O[C@@H](O[C@@H]3/C(C)=C/C[C@@H]4C[C@@H](C[C@]5(C=C[C@H](C)[C@@H](C(C)C)O5)O4)OC(=O)[C@@H]4C=C(C)[C@@H](O)[C@H]5OC/C(=C\C=C\[C@@H]3C)[C@]54O)C[C@@H]2OC)O[C@@H](C)[C@@H]1O` [ABAMECTIN] are 12 µM, 4 µM and 3.
For `Cc1ccc(/N=C/N(C)/C=N/c2ccc(C)cc2C)c(C)c1` [AMITRAZ] the same measures were 33 µM, 16 µM and 2.1.
`CN(C)CCC=C1c2ccccc2CCc2ccccc21` [AMITRIPTYLINE]: the EC50 in assay [1] is 23 µM; with Trypanosoma cruzi, 12 µM. In addition, in assay [2], the “Ratio EC50” value worked out at 1.9.
For `CN1CCCC(n2nc(Cc3ccc(Cl)cc3)c3ccccc3c2=O)CC1` (stereo not drawn) [AZELASTINE] the same measures were 49 µM, 1 µM and 49.
With `CN1[C@@H]2CC[C@H]1C[C@@H](OC(c1ccccc1)c1ccccc1)C2` [BENZTROPINE], the EC50 in assay [1] worked out at 46 µM; in the assay with Trypanosoma cruzi, 17 µM. Besides, in assay [2], the “Ratio EC50” value was found to be 2.7.
With `c1ccc(Cn2ccnc2)cc1` [BENZYLIMIDAZOLE], the EC50 in assay [1] is more than 50 µM; with Trypanosoma cruzi it was 35 µM. Moreover, the “Ratio EC50” value in assay [2] is more than 1.4.
For `Cc1cc2c(OCC(CNC(C)(C)C)OC(=O)c3ccccc3)cccc2[nH]1` (stereo not drawn) [BOPINDOLOL] the same measures were more than 50 µM, 40 µM and more than 1.3.
For `COc1ccccc1OCCNCC(O)COc1cccc2[nH]c3ccccc3c12` (stereo not drawn) [CARVEDILOL] the same measures were 31 µM, 8 µM and 3.9.
For `CCC(=O)O[C@]1(C(=O)CCl)[C@@H](C)C[C@H]2[C@@H]3CCC4=CC(=O)C=C[C@]4(C)[C@@]3(F)[C@@H](O)C[C@@]21C` [CLOBETASOL PROPIONATE] the same measures were 41 µM, 25 µM and 1.6.
As for `CN(C)CCCN1c2ccccc2CCc2ccc(Cl)cc21` [CLOMIPRAMINE], the EC50 was more than 50 µM in assay [1] and 8 µM in the assay on Trypanosoma cruzi. In addition, the “Ratio EC50” value in assay [2] is recorded as more than 6.3.
For `C[C@@H]1C[C@@H]([C@H](O)CC2CC(=O)NC(=O)C2)C(=O)[C@@H](C)C1` [CYCLOHEXIMIDE] the same measures were more than 50 µM, less than 0.4 µM and more than 125.
In the same order, the values of `CC(=O)O[C@]1(C(C)=O)CC[C@H]2[C@@H]3C=C(Cl)C4=CC(=O)[C@@H]5C[C@@H]5[C@]4(C)[C@H]3CC[C@@]21C` [CYPROTERONE ACETATE] are more than 50 µM, 32 µM and more than 1.6.
In the case of `CC(C)[C@@]1(NC(=O)[C@@H]2C[C@@H]3c4cccc5[nH]cc(c45)C[C@H]3N(C)C2)O[C@@]2(O)[C@@H]3CCCN3C(=O)[C@H](Cc3ccccc3)N2C1=O.CS(=O)(=O)O` [DIHYDROERGOCRISTINE MESYLATE], the EC50 in assay [1] came out at 47 µM; in the assay on Trypanosoma cruzi it was 5 µM. Besides, in assay [2], the “Ratio EC50” value is reported as 9.4.
In the same order, the values of `CC(=O)O[C@@]12CO[C@@H]1C[C@H](O)[C@@]1(C)C(=O)[C@H](O)C3=C(C)[C@@H](OC(=O)[C@H](O)[C@@H](NC(=O)OC(C)(C)C)c4ccccc4)C[C@@](O)([C@@H](OC(=O)c4ccccc4)[C@H]21)C3(C)C.O.O.O` [DOCETAXEL] are 44 µM, less than 0.8 µM and more than 56.
In the same order, the values of `COc1cc2nc(N3CCN(C(=O)C4COc5ccccc5O4)CC3)nc(N)c2cc1OC` (stereo not drawn) [DOXAZOSIN] are 27 µM, 12 µM and 2.3.
For `CCCCOc1ccc(C(=O)CCN2CCCCC2)cc1.Cl` [DYCLONINE HYDROCHLORIDE] the same measures were 36 µM, 15 µM and 2.4.
Turning to `CC(C)[C@H]1C(=O)N2CCC[C@H]2[C@]2(O)O[C@](NC(=O)[C@@H]3C=C4c5cccc6[nH]cc(c56)C[C@H]4N(C)C3)(C(C)C)C(=O)N12` [ERGOCORNINE], the EC50 in assay [1] turned out to be 43 µM; in the assay with Trypanosoma cruzi, 18 µM. In assay [2], the “Ratio EC50” value worked out at 2.4.
For `CNCCC(Oc1ccc(C(F)(F)F)cc1)c1ccccc1` (stereo not drawn) [FLUOXETINE], the EC50 in assay [1] was found to be 16 µM; in the assay on Trypanosoma cruzi, 7 µM. For the same compound, the “Ratio EC50” value in assay [2] worked out at 2.3.
In the same order, the values of `OCCN1CCN(CCCN2c3ccccc3Sc3ccc(C(F)(F)F)cc32)CC1` [FLUPHENAZINE] are 21 µM, 4 µM and 5.3.
In the same order, the values of `O=C1OCCN1/N=C/c1ccc([N+](=O)[O-])o1` [FURAZOLIDONE] are more than 50 µM, less than 0.4 µM and more than 125.
For the compound `C[C@H]([C@](O)(Cn1cncn1)c1ccc(F)cc1F)S(C)(=O)=O` [GENACONAZOLE], the EC50 in assay [1] was more than 50 µM; with Trypanosoma cruzi, 18 µM. For the same compound, the “Ratio EC50” value in assay [2] is listed as more than 2.8.
Take `O=C(CCCN1CCC(O)(c2ccc(Cl)cc2)CC1)c1ccc(F)cc1` [HALOPERIDOL]: the results for the EC50 (in assay [1]; in the assay on Trypanosoma cruzi) were 33 µM and 7 µM, respectively. Further, the “Ratio EC50” value in assay [2] is listed as 4.7.
With `CN1CCCN(C(c2ccccc2)c2ccc(Cl)cc2)CC1` (stereo not drawn) [HOMOCHLORCYCLIZINE], the EC50 came out at 13 µM in assay [1] and 12 µM in the assay on Trypanosoma cruzi. In assay [2], the “Ratio EC50” value turned out to be 1.1.
For the compound `Cc1ccc(NC(=O)c2ccc(CN3CCN(C)CC3)cc2)cc1Nc1nccc(-c2cccnc2)n1` [IMATINIB], the figures for the EC50 (in assay [1]; with Trypanosoma cruzi) were 32 µM and 9 µM, respectively. Besides, the “Ratio EC50” value in assay [2] is 3.6.
For `C=C(C)[C@H]1CN[C@H](C(=O)O)[C@H]1CC(=O)O` [KAINIC ACID] the same measures were 13 µM, 3 µM and 4.3.
For `COc1ccc(CN2CCN(C(c3ccc(F)cc3)c3ccc(F)cc3)CC2)c(OC)c1OC` [LOMERIZINE] the same measures were 22 µM, 9 µM and 2.4.
In the same order, the values of `CN(C)C(=O)C(CCN1CCC(O)(c2ccc(Cl)cc2)CC1)(c1ccccc1)c1ccccc1` [LOPERAMIDE] are 12 µM, 3 µM and 4.
`CCOC(=O)N1CCC(=C2c3ccc(Cl)cc3CCc3cccnc32)CC1` [LORATADINE]: the figures for the EC50 (in assay [1]; in the assay with Trypanosoma cruzi) were 17 µM and 9 µM, respectively. Further, the “Ratio EC50” value in assay [2] is 1.9.
For `CN1C[C@H](CNC(=O)OCc2ccccc2)C[C@@H]2c3cccc4c3c(cn4C)C[C@H]21` [METERGOLINE] the same measures were 18 µM, 4 µM and 4.5.
For `COc1c(C)c2c(c(O)c1C/C=C(\C)CCC(=O)OCCN1CCOCC1)C(=O)OC2` [MYCOPHENOLATE MOFETIL] the same measures were more than 50 µM, 7 µM and more than 7.1.
For `CCN(CC)CCOCCC1=CCC2CC1C2(C)C` (stereo not drawn) [MYRTECAINE] the same measures were 24 µM, 14 µM and 1.7.
For `COc1ccccc1N1CCN(CC(O)COc2cccc3ccccc23)CC1` (stereo not drawn) [NAFTOPIDIL], the EC50 in assay [1] was determined as 18 µM; in the assay with Trypanosoma cruzi, 11 µM. For the same compound, in assay [2], the “Ratio EC50” value worked out at 1.6.
As for `C=CCN1CC[C@]23c4c5ccc(O)c4O[C@H]2/C(=N/N=C2\CC[C@@]4(O)[C@H]6Cc7ccc(O)c8c7[C@@]4(CCN6CC=C)[C@H]2O8)CC[C@@]3(O)[C@H]1C5` [NALOXONAZINE], the figures for the EC50 (in assay [1]; with Trypanosoma cruzi) were 16 µM and 17 µM, respectively. Besides, the “Ratio EC50” value in assay [2] is listed as 0.9.
For `CCc1nn(CCCN2CCN(c3cccc(Cl)c3)CC2)c(=O)n1CCOc1ccccc1` [NEFAZODONE] the same measures were 15 µM, 8 µM and 1.9.
In the same order, the values of `O=C(N/N=C/c1ccc([N+](=O)[O-])o1)c1cc([N+](=O)[O-])cc([N+](=O)[O-])c1O` [NIFURSOL] are more than 50 µM, 15 µM and more than 3.3.
For `NC(=O)N/N=C/c1ccc([N+](=O)[O-])o1` [NITROFURAZONE] the same measures were more than 50 µM, 8 µM and more than 6.3.
